Results as given in US20120202231A1, “SYNERGISTIC BIOMARKER ASSAY OF NEUROLOGICAL CONDITION USING S-100B” (priority 2009, published 2012).

Test system: Female Sprague-Dawley rats
Conditions: for GFAP level relative to control animals / S-100b level relative to control animals / UCH-L1 level relative to control animals: rats, biofluids, 30, 60, 90, 120 min after dosing
Method: Acute oral In vivo drug candidate screening for neurotoxicity. […] A total of four to eight animals of are used for each dose level investigated.
At 30, 60, 90, and 120 minutes following dosing, the rats are sacrificed by decapitation and blood is obtained by cardiac puncture. The levels of biofluids S-100β, UCH-L1, and GFAP are analyzed by sandwich ELISA or western blot by using biomarker specific antibodies.

| Compound | GFAP level relative to control animals | S-100b level relative to control animals | UCH-L1 level relative to control animals | CSF concentration of GFAP relative to control animals (rat, in vivo) | CSF concentration of UCH-L1 relative to control animals (rat, in vivo) |
| --- | --- | --- | --- | --- | --- |
| N.N.[Cl][Pt][Cl] [Cisplatin, cisplatin] | increase | increase | increase |  |  |
| CN1CC=C(c2ccccc2)CC1 [MPTP] | increase | increase | increase |  |  |
| CN[C@@H](C)Cc1ccccc1 [methamphetamine] |  | Modest increase |  | increase | increase |
| C=C(C)[C@H]1CN[C@H](C(=O)O)[C@H]1CC(=O)O [kainic acid] | increase | increase | increase |  |  |
